Measurements from US8895579B2, “Heterotricyclic AMPA receptor antagonists for treatment of epilepsy, pain, and other neurological disorders and diseases” (Northwestern University, priority 2010, dated 2014).
Where two headings read alike, the source gives them in different places.

How the values were obtained:
GluK1-2b = biological target: T1, GluK1-2b (Rattus norvegicus, UniProt P22756); assay: [3H]-KA radioligand binding, membranes of HEK293-T/17 cells expressing GluK1-2b; settings: 10 nM [3H]-KA, 1 h at 4° C., read-out: [3H]KA bound as percent of total (specific) binding in absence of competing ligand
T1 construct: myc; expressed in transfected cells; host or cells: HEK293-T/17 (CRL-11268)
Experimental: Radioligand binding. HEK293-T/17 cells were transfected with 5 μg of iGluR cDNA in 100 mm^2 culture dishes. Two days post transfection, the plates were washed twice with ice-cold Dulbecco's phosphate-buffered saline (DPBS) and then incubated with 50 mM Tris (pH 7.4) and 1 mM EDTA for three minutes on ice. Cells were collected and centrifuged for five minutes at 800 g at room temperature. The cell pellet was homogenized in 50 mM Tris (pH 7.4) containing 320 mM sucrose (homogenization buffer, HB) on ice using a glass dounce homogenizer and centrifuged at 4° C. for 10 minutes at 800 g. The supernatant, containing the membrane fragments, was saved and the remaining pellet containing nuclei and unbroken cells was resuspended in HB. This homogenization process was repeated two more times and after collection of the final resulting supernatant, the remaining pellet was discarded. The collected supernatants were centrifuged at 4° C. for 20 minutes at 20000 g and the resulting supernatant was discarded leaving a membrane-containing pellet. […] Non-specific binding was determined as the amount of radioligand bound in the presence of a saturating concentration of glutamate (1 mM). Total binding was determined as the amount of radioligand bound in the absence of any competing ligands minus the non-specific binding. […]

[1] = biological target: T2, recombinant homomeric GluA4 AMPA receptor (Rattus norvegicus, UniProt P19493); assay: Whole-cell patch clamp of recombinant GluA4 receptors in HEK293-T/17 cells; assay type: cell-based; settings: for inhibition at 30 µM: HEK293T/17, 30 μM
T2 construct: expressed in transfected cells; host or cells: HEK293-T/17 (CRL-11268)
Experimental: Cell Culture and Transfection. Human embryonic kidney cells expressing T-antigen, clone 17 (HEK293-T/17) (CRL-11268) were cultured at 37° C. with 5% CO2 in DMEM, including 100 μg/mL penicillin, 100 μg/mL streptomycin, and 10% heat-inactivated fetal bovine serum. Cells were split twice per week. For transfection, HEK293-T/17 cells were plated at 3×10^4 cells/cm^2 for pharmacology experiments and 5×10^3 cells/cm^2 for physiology experiments in fresh medium 24 h prior to transfection. Cells were transfected with AMPA or KA receptor plasmid cDNAs using Mirus Trans-IT transfection reagent (Minus Bio Corporation, Madison, Wis.) at a ratio of 1 μg cDNA: 3 μL Trans-1T reagent and maintained in transfection medium overnight followed by a media change the next day. Transfected cells were maintained in this medium until the experiment was conducted (48-72 h total post transfection).
Electrophysiology. For analysis of recombinant receptors, HEK293-T/17 cells were co-transfected with 0.2 μg of iGluR cDNA and 0.05 μg of eGFP. For heterologous GluA1/GluA2 receptors, the GluA1:GluA2 cDNA ratio was 1:6. Two to three days post-transfection, eGFP-expressing cells were lifted from the cover slip and voltage clamped in whole cell mode. The internal solution contained (in mM) 30 CsF, 110 CsCl, 10 HEPES, 4 NaCl, 5 EGTA and 0.5 CaCl2 (pH 7.3), while the extracellular solution contained (in mM) 140 NaCl, 10 glucose, 10 Cs-HEPES, 3 KCl, 2 CaCl2 and 1 MgCl2 (pH 7.3). Borosilicate patch electrodes were pulled and fire polished to 2-3 MO resistance. Lifted cells were maintained in a laminar stream of extracellular solution from a triple-barreled flow pipe, which was rapidly translated using a piezoceramic bimorph for fast application of glutamate or kainate alone or in combination with various antagonists (the 10-90% rise time of glutamate-evoked currents was ˜1 ms). IKM compounds were applied for three minutes with analysis performed on the final one minute of drug application.
Statistical analysis. At least three separate experiments were performed for each assay. For data involving three or more groups, a one-way analysis of variance (ANOVA) was performed with a Tukey-Kramer post hoc test for comparison amongst the groups. For data involving two groups, an unpaired student's t-test was performed; if the standard deviations between the two groups were statistically significant, a Welsh correction was added. If the data involving three or more groups or data involving two groups where multiple treatments were performed on the same sample, a repeated measures ANOVA and paired t-test were used, respectively, for analysis of significance. Dose-inhibition response curves were fitted, with the maximum value constrained to 100 and the minimum value constrained to values greater than or equal to zero, using the following equation in order to calculate the IC50 values: Response=minimum+(maximum−minimum)/(1+(IC50^hill slope/dose^hillslope)) All calculations for statistical analysis were carried out with Graphpad Prism4 software (La Jolla, Calif.). Data are presented as mean±S.E.M. with statistical significance set at p<0.05.

T2 sequence (P19493 21-902 isoform P19493-2 limits assumed): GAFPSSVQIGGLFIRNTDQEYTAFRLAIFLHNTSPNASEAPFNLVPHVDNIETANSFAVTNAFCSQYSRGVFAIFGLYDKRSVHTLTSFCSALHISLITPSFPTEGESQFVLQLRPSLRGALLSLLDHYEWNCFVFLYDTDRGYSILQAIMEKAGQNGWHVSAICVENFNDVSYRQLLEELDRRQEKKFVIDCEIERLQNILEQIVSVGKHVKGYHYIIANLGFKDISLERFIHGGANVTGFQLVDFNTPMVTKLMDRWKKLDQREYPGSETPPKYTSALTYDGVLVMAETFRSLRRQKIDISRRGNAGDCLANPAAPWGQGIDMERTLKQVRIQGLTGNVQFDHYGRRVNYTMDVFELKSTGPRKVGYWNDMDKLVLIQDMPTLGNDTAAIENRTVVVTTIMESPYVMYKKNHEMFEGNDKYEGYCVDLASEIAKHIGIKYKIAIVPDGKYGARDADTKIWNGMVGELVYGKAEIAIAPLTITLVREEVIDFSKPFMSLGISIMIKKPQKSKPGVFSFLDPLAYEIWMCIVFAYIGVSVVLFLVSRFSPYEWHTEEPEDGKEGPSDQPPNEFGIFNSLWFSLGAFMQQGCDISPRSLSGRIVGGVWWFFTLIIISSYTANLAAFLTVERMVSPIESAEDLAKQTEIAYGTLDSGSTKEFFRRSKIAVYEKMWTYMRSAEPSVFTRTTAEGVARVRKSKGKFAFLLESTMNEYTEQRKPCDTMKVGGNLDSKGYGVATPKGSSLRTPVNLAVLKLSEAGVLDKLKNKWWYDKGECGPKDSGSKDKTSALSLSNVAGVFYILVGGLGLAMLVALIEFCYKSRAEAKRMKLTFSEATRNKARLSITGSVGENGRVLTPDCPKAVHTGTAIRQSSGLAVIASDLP
T1 sequence (P22756 31-905 isoform P22756-2 limits assumed): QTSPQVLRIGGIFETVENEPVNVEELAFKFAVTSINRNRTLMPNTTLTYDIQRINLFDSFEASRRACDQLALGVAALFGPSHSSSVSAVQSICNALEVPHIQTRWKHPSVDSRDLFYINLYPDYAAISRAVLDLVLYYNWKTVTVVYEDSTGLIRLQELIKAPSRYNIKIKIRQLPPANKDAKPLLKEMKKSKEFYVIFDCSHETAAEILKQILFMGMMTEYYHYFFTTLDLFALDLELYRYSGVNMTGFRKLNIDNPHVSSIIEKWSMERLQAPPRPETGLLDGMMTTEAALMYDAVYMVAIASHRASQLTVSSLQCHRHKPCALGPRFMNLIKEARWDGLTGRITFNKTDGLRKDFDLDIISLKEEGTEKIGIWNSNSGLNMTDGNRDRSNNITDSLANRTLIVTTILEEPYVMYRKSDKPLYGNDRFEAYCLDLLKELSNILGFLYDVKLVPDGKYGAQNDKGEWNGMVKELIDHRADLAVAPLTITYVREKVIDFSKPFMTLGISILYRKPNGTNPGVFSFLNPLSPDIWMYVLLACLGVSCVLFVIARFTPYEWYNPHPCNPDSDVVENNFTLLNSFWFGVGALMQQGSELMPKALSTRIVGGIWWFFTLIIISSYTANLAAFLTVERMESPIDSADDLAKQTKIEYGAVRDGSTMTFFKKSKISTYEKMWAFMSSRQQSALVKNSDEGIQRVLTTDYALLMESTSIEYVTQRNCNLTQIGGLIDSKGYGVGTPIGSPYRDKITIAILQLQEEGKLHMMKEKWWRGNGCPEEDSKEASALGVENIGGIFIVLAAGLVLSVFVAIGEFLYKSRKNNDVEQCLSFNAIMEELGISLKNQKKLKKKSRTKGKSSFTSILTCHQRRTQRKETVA

O=C(O)C[C@@]12O[C@H]3C=CCN[C@H]3C1CN[C@H]2C(=O)O (stereo partly drawn) [IKM-159]
activity at 100 µM (GluK1-2b): 105 ± 5%
inhibition at 30 µM ([1]; 50 μM KA, read-out: percent inhibition of kainate-evoked steady state GluA4 currents): 37 ± 4%
inhibition at 30 µM ([1]; 100 μM glutamate, 100 μM cyclothiazide, read-out: percent inhibition of steady-state GluA4 currents): 30 ± 5%
inhibition at 30 µM ([1]; 500 μM KA, read-out: percent inhibition of kainate-evoked steady state GluA4 currents): 21 ± 2%
inhibition at 30 µM ([1]; 500 μM glutamate, read-out: percent inhibition of GluA4 non-equilibrium peak currents): 44 ± 8%
inhibition at 30 µM ([1]; 10 mM glutamate, 100 μM cyclothiazide, read-out: percent inhibition of steady-state GluA4 currents): 7 ± 2%
inhibition at 30 µM ([1]; 10 mM glutamate, peak current, read-out: reduction from control GluA4 peak glutamate current amplitude (percent inhibition)): 40 ± 4%
remaining activity at 30 µM ([1]; HEK293T/17, 30 μM, 10 mM glutamate 100 ms, pre-applied at least one minute, read-out: GluA4 peak current as percent of control amplitude): 60 ± 4%
IC50 ([1]; currents evoked by 10 mM glutamate): 60 ± 8 µM
